Test results published in US6753296B1, “Method for improving plant growth” (priority 2002, dated 2004).

Assays:
Type in all cases: in vivo
[1] = system: Potato; assay: Crop yield of treated potato tubers; conditions: potato tubers treated at 500 g per 100 kg seed; harvested at maturity; vs untreated tubers
Procedure: Potato tubers are treated with the composition of the invention containing Imidacloprid, at a rate of 500 g Imidacloprid per 100 kg seed and are planted following procedures which correspond to conditions found in practice. The crop is harvested from the field at maturity. Untreated tubers from the same origin are used for comparison purposes.

[2] = system: Canola; assay: Emergence of canola from treated seed; conditions: seed treatment 300 g per 100 kg seed; vs untreated seeds
Procedure: Canola seed is treated with the composition of the invention containing Thiamethoxam, at a rate of 300 g Thiamethoxam per 100 kg seed, and is seeded following procedures which correspond to conditions found in practice. Untreated seeds from the same origin are used for comparison purposes. Emergence (plants per meter) is evaluated. In the case of treated seeds, about 20% more plants per meter emerge that in the case of untreated plants.

[3] = system: Rice (Orvza sativa L. cv. Nihonbare); assay: Vigor of rice after drench treatment
Procedure: (§1) Plant are grown in a commercially available pathogen-free soil mixture. 2 weeks (eggplants 3 weeks) after planting seedlings are transplanted into 600 ml pots and drench treated with 10 mg Thiamethoxam in 20 ml water per pot. They were fertilised once or twice a week. Up to 10 weeks after treatment, fresh- and dry-weight of shoots and roots and numbers of leaves are determined. Protein content is measured by the method of Bradford (1976, Anal. Biochem., 72, 248-254) with BSA (bovine serum albumin) as standard: Homogenisation of leaf material in liquid N2 in a mortar. Extraction in phosphate buffer (pH 7.5, 0.1M, 2/1 vol/weight). After centrifugation supematant is separated from pellet and stored at −20° C. until protein determination. For comparison of treated and check, mg proteing/g fresh weight is calculated.
(§2) Tables B2 and B3: Differences between treated plants and Check given as factors (e.g. fresh weight of treated/Fresh weight of check). Factors >1 indicate an enhancement of vigor of treated plants. FW: fresh weight; DW: dry weight; Protein ((mg/g treated plant)/(mg/g check))

[4] = system: Eggplant (Solanum melongena L. cv. Marfa); assay: Vigor of eggplant after drench treatment
Procedure: as §1, §2

O=[N+]([O-])NC1=NCCN1Cc1ccc(Cl)nc1 [Imidacloprid]
Crop yield [1]: significantly higher

CN1COCN(Cc2cnc(Cl)s2)/C1=N\[N+](=O)[O-] [Thiamethoxam]
Emergence (plants per meter), more plants than untreated [2]: about 20%
Protein ((mg/g treated plant)/(mg/g check)) ([3]; week 1, drench 10 mg per pot): 1.1
Root DW (factor treated/check) ([3]; week 1, drench 10 mg per pot): 0.8
Root FW (factor treated/check) ([3]; week 1, drench 10 mg per pot): 1.0
Shoot DW (factor treated/check) ([3]; week 1, drench 10 mg per pot): 1.0
Shoot FW (factor treated/check) ([3]; week 1, drench 10 mg per pot): 1.0
Size (factor treated/check) ([3]; week 1, drench 10 mg per pot): 1.0
Protein ((mg/g treated plant)/(mg/g check)) ([3]; week 2, drench 10 mg per pot): 1.0
Root DW (factor treated/check) ([3]; week 2, drench 10 mg per pot): 1.1
Root FW (factor treated/check) ([3]; week 2, drench 10 mg per pot): 0.8
Shoot DW (factor treated/check) ([3]; week 2, drench 10 mg per pot): 1.1
Shoot FW (factor treated/check) ([3]; week 2, drench 10 mg per pot): 1.0
Size (factor treated/check) ([3]; week 2, drench 10 mg per pot): 1.0
Protein ((mg/g treated plant)/(mg/g check)) ([3]; week 3, drench 10 mg per pot): 1.0
Root DW (factor treated/check) ([3]; week 3, drench 10 mg per pot): 1.3
Root FW (factor treated/check) ([3]; week 3, drench 10 mg per pot): 0.6
Shoot DW (factor treated/check) ([3]; week 3, drench 10 mg per pot): 1.3
Shoot FW (factor treated/check) ([3]; week 3, drench 10 mg per pot): 1.2
Size (factor treated/check) ([3]; week 3, drench 10 mg per pot): 1.0
Protein ((mg/g treated plant)/(mg/g check)) ([3]; week 4, drench 10 mg per pot): 1.0
Root DW (factor treated/check) ([3]; week 4, drench 10 mg per pot): 1.4
Root FW (factor treated/check) ([3]; week 4, drench 10 mg per pot): 1.5
Shoot DW (factor treated/check) ([3]; week 4, drench 10 mg per pot): 1.2
Shoot FW (factor treated/check) ([3]; week 4, drench 10 mg per pot): 1.3
Size (factor treated/check) ([3]; week 4, drench 10 mg per pot): 1.1
Protein ((mg/g treated plant)/(mg/g check)) ([3]; week 5, drench 10 mg per pot): 1.0
Root DW (factor treated/check) ([3]; week 5, drench 10 mg per pot): 0.9
Root FW (factor treated/check) ([3]; week 5, drench 10 mg per pot): 1.0
Shoot DW (factor treated/check) ([3]; week 5, drench 10 mg per pot): 1.1
Shoot FW (factor treated/check) ([3]; week 5, drench 10 mg per pot): 1.2
Size (factor treated/check) ([3]; week 5, drench 10 mg per pot): 1.1
Protein ((mg/g treated plant)/(mg/g check)) ([3]; week 6, drench 10 mg per pot): 1.0
Root DW (factor treated/check) ([3]; week 6, drench 10 mg per pot): 1.5
Root FW (factor treated/check) ([3]; week 6, drench 10 mg per pot): 1.6
Shoot DW (factor treated/check) ([3]; week 6, drench 10 mg per pot): 1.1
Shoot FW (factor treated/check) ([3]; week 6, drench 10 mg per pot): 1.3
Size (factor treated/check) ([3]; week 6, drench 10 mg per pot): 1.2
Protein ((mg/g treated plant)/(mg/g check)) ([3]; week 7, drench 10 mg per pot): 1.1
Root DW (factor treated/check) ([3]; week 7, drench 10 mg per pot): 1.3
Root FW (factor treated/check) ([3]; week 7, drench 10 mg per pot): 1.3
Shoot DW (factor treated/check) ([3]; week 7, drench 10 mg per pot): 1.2
Shoot FW (factor treated/check) ([3]; week 7, drench 10 mg per pot): 1.3
Size (factor treated/check) ([3]; week 7, drench 10 mg per pot): 1.1
Protein ((mg/g treated plant)/(mg/g check)) ([3]; week 8, drench 10 mg per pot): 1.0
Root DW (factor treated/check) ([3]; week 8, drench 10 mg per pot): 1.5
Root FW (factor treated/check) ([3]; week 8, drench 10 mg per pot): 1.8
Shoot DW (factor treated/check) ([3]; week 8, drench 10 mg per pot): 1.4
Shoot FW (factor treated/check) ([3]; week 8, drench 10 mg per pot): 1.4
Size (factor treated/check) ([3]; week 8, drench 10 mg per pot): 1.1
Protein ((mg/g treated plant)/(mg/g check)) ([3]; week 9, drench 10 mg per pot): 0.9
Root DW (factor treated/check) ([3]; week 9, drench 10 mg per pot): 1.0
Root FW (factor treated/check) ([3]; week 9, drench 10 mg per pot): 1.0
Shoot DW (factor treated/check) ([3]; week 9, drench 10 mg per pot): 1.2
Shoot FW (factor treated/check) ([3]; week 9, drench 10 mg per pot): 1.2
Size (factor treated/check) ([3]; week 9, drench 10 mg per pot): 1.2
Protein ((mg/g treated plant)/(mg/g check)) ([3]; week 10, drench 10 mg per pot): 0.7
Root DW (factor treated/check) ([3]; week 10, drench 10 mg per pot): 2.0
Root FW (factor treated/check) ([3]; week 10, drench 10 mg per pot): 2.0
Shoot DW (factor treated/check) ([3]; week 10, drench 10 mg per pot): 1.3
Shoot FW (factor treated/check) ([3]; week 10, drench 10 mg per pot): 1.3
Size (factor treated/check) ([3]; week 10, drench 10 mg per pot): 1.3
Protein ((mg/g treated plant)/(mg/g check)) ([4]; week 1, drench 10 mg per pot): 1.0
Root DW (factor treated/check) ([4]; week 1, drench 10 mg per pot): 1.0
Root FW (factor treated/check) ([4]; week 1, drench 10 mg per pot): 1.0
Shoot DW (factor treated/check) ([4]; week 1, drench 10 mg per pot): 0.9
Shoot FW (factor treated/check) ([4]; week 1, drench 10 mg per pot): 0.9
Size (factor treated/check) ([4]; week 1, drench 10 mg per pot): 1.0
Protein ((mg/g treated plant)/(mg/g check)) ([4]; week 2, drench 10 mg per pot): 1.1
Root DW (factor treated/check) ([4]; week 2, drench 10 mg per pot): 1.2
Root FW (factor treated/check) ([4]; week 2, drench 10 mg per pot): 1.2
Shoot DW (factor treated/check) ([4]; week 2, drench 10 mg per pot): 1.1
Shoot FW (factor treated/check) ([4]; week 2, drench 10 mg per pot): 0.7
Size (factor treated/check) ([4]; week 2, drench 10 mg per pot): 1.1
Protein ((mg/g treated plant)/(mg/g check)) ([4]; week 3, drench 10 mg per pot): 1.0
Root DW (factor treated/check) ([4]; week 3, drench 10 mg per pot): 1.1
Root FW (factor treated/check) ([4]; week 3, drench 10 mg per pot): 1.1
Shoot DW (factor treated/check) ([4]; week 3, drench 10 mg per pot): 1.1
Shoot FW (factor treated/check) ([4]; week 3, drench 10 mg per pot): 1.2
Size (factor treated/check) ([4]; week 3, drench 10 mg per pot): 1.1
Protein ((mg/g treated plant)/(mg/g check)) ([4]; week 4, drench 10 mg per pot): 1.6
Root DW (factor treated/check) ([4]; week 4, drench 10 mg per pot): 1.0
Root FW (factor treated/check) ([4]; week 4, drench 10 mg per pot): 1.0
Shoot DW (factor treated/check) ([4]; week 4, drench 10 mg per pot): 1.1
Shoot FW (factor treated/check) ([4]; week 4, drench 10 mg per pot): 1.1
Size (factor treated/check) ([4]; week 4, drench 10 mg per pot): 1.0
Leaf No (factor treated/check) ([4]; week 5, drench 10 mg per pot): 1.1
Protein ((mg/g treated plant)/(mg/g check)) ([4]; week 5, drench 10 mg per pot): 1.0
Root DW (factor treated/check) ([4]; week 5, drench 10 mg per pot): 1.0
Root FW (factor treated/check) ([4]; week 5, drench 10 mg per pot): 0.9
Shoot DW (factor treated/check) ([4]; week 5, drench 10 mg per pot): 1.1
Shoot FW (factor treated/check) ([4]; week 5, drench 10 mg per pot): 1.0
Size (factor treated/check) ([4]; week 5, drench 10 mg per pot): 1.0
Leaf No (factor treated/check) ([4]; week 6, drench 10 mg per pot): 1.3
Protein ((mg/g treated plant)/(mg/g check)) ([4]; week 6, drench 10 mg per pot): 1.1
Root DW (factor treated/check) ([4]; week 6, drench 10 mg per pot): 0.9
Root FW (factor treated/check) ([4]; week 6, drench 10 mg per pot): 0.9
Shoot DW (factor treated/check) ([4]; week 6, drench 10 mg per pot): 1.3
Shoot FW (factor treated/check) ([4]; week 6, drench 10 mg per pot): 1.3
Size (factor treated/check) ([4]; week 6, drench 10 mg per pot): 1.3
Leaf No (factor treated/check) ([4]; week 7, drench 10 mg per pot): 1.3
Protein ((mg/g treated plant)/(mg/g check)) ([4]; week 7, drench 10 mg per pot): 1.4
Root DW (factor treated/check) ([4]; week 7, drench 10 mg per pot): 0.7
Root FW (factor treated/check) ([4]; week 7, drench 10 mg per pot): 0.8
Shoot DW (factor treated/check) ([4]; week 7, drench 10 mg per pot): 1.1
Shoot FW (factor treated/check) ([4]; week 7, drench 10 mg per pot): 1.1
Size (factor treated/check) ([4]; week 7, drench 10 mg per pot): 1.2
Leaf No (factor treated/check) ([4]; week 8, drench 10 mg per pot): 1.2
Protein ((mg/g treated plant)/(mg/g check)) ([4]; week 8, drench 10 mg per pot): 1.4
Root DW (factor treated/check) ([4]; week 8, drench 10 mg per pot): 0.6
Root FW (factor treated/check) ([4]; week 8, drench 10 mg per pot): 0.6
Shoot DW (factor treated/check) ([4]; week 8, drench 10 mg per pot): 0.9
Shoot FW (factor treated/check) ([4]; week 8, drench 10 mg per pot): 0.7
Size (factor treated/check) ([4]; week 8, drench 10 mg per pot): 1.2
Leaf No (factor treated/check) ([4]; week 9, drench 10 mg per pot): 1.6
Protein ((mg/g treated plant)/(mg/g check)) ([4]; week 9, drench 10 mg per pot): 2.5
Root DW (factor treated/check) ([4]; week 9, drench 10 mg per pot): 1.1
Root FW (factor treated/check) ([4]; week 9, drench 10 mg per pot): 0.9
Shoot DW (factor treated/check) ([4]; week 9, drench 10 mg per pot): 1.1
Shoot FW (factor treated/check) ([4]; week 9, drench 10 mg per pot): 0.7
Size (factor treated/check) ([4]; week 9, drench 10 mg per pot): 1.4
Leaf No (factor treated/check) ([4]; week 10, drench 10 mg per pot): 1.4
Protein ((mg/g treated plant)/(mg/g check)) ([4]; week 10, drench 10 mg per pot): 1.3
Root DW (factor treated/check) ([4]; week 10, drench 10 mg per pot): 1.3
Root FW (factor treated/check) ([4]; week 10, drench 10 mg per pot): 1.1
Shoot DW (factor treated/check) ([4]; week 10, drench 10 mg per pot): 1.1
Shoot FW (factor treated/check) ([4]; week 10, drench 10 mg per pot): 1.1
Size (factor treated/check) ([4]; week 10, drench 10 mg per pot): 1.4
